In patent publication US20210177879A1, “VITAMIN D RECEPTOR AGONIST” (Guanghzou University of Chinese Medicine, priority 2018, published 2021):

What was measured:
IL-6, IL-10, IL-1β = experiment: Determination of cytokines in intestinal tumor tissues by Elisa; format: in vivo, Balb/c mice; settings: vs model group
Procedure: (§1) Experimental method: 90 Balb/c mice of 6-8 weeks were purchased from the Experimental Animal Center in Guangzhou University of Chinese Medicine, weighed about 18-22 g, and subjected to adaptive feeding for 10 days. Modeling was divided into three stages. In the first stage, except for the normal group of animals being given saline injection, each of the other animals were intraperitoneally injected with a carcinogen AOM (10 mg/kg), and given free access to 2% DSS water from the next day for 7 days, and then given access to replaced regular drinking water for 14 days. In the second stage, the animals were given free access to 2% DSS water for 10 days, and then given access to replaced regular drinking water for 14 days. In the third stage, the animals were given free access to 2% DSS water for 10 days, and then given access to replaced regular drinking water for 11 days. The normal group was given access to regular drinking water throughout the experiment. The diet, water drinking and body weights of the animals were recorded daily and DAI scores were made, and the animals were killed and harvested at the 10th week. In this experiment, the animals were divided into groups and administrated on the first day of a modeling period of the second stage, and the total number of groups was set to 5 groups. […]
The intestinal tumor tissues frozen and stored at −80° C. were taken and homogenized, and the homogenate was determined with a BCA kit for the total protein concentration thereof. The homogenate was diluted by 20 times and then determined by Elisa method for cytokines: IL-6, IL-10, and IL-1β. […]

Aktl = experiment: Detection of acting target of monotropein: Aktl (Western blot); format: in vivo, Balb/c mice; settings: colon of AOM/DSS mice
Procedure: as §1, with “week.” for “week. In this experiment, the animals were divided into groups and administrated on the first day of a modeling period of the second stage, and the total number of groups was set to 5 groups.”
A potential acting target of monotropein for interfering with the colon cancer was detected.

vitamin D receptor = experiment: Expression of vitamin D receptor in colon tissues, Experiment 2 (Western blot, immunohistochemistry); format: in vivo, Balb/c mice; settings: compared with the blank group; VD3 0.2 mg/kg, four compounds 2 mg/kg
Procedure: Experimental method: 70 Balb/c mice of 6-8 weeks were purchased from the Experimental Animal Center in Guangzhou University of Chinese Medicine, weighed about 18-22 g, and subjected to adaptive feeding for 10 days. Modeling was divided into three stages. In the first stage, except for the normal group of animals being given saline injection, each of the other animals were intraperitoneally injected with a carcinogen AOM (10 mg/kg), and given free access to 2% DSS water from the next day for 7 days, and then given access to replaced regular drinking water for 14 days. In the second stage, the animals were given free access to 2% DSS water for 10 days, and then given access to replaced regular drinking water for 14 days. In the third stage, the animals were given free access to 2% DSS water for 10 days, and then given access to replaced regular drinking water for 11 days. The normal group was given access to regular drinking water throughout the experiment. The diet, water drinking and body weights of the animals were recorded daily and DAI scores were made, and the animals were killed and harvested at the 10th week. In this experiment, the animals were divided into groups and administrated on the first day of a modeling period of the second stage, where a total of 7 groups were set, each group including 10 animals. The first group was a blank control group (control) that was given access to drinking water by gavage; the second group was a model group (model), in which a total of 10 animals were given access to drinking water by gavage; the third group was a vitamin D3 positive administration control group (VD3, 0.2 mg/kg); and the fourth to seventh groups were given monotropein, desacetyl asperulosidic acid, asperuloside, and asperulosidic acid (groups labeled as: Mo, As, Aa, Da), respectively at a given dose of 2 mg/kg. Dosing was conducted once a day until the end of the experiment. At the end of the experiment, the animals were anesthetized and harvested, and the colon tissue was taken, measured with a ruler for the length, and measured with a vernier caliper for the thickness. The effects of monotropein, desacetyl asperulosidic acid, asperuloside and asperulosidic acid on expression of the vitamin D receptor were detected.

HT29 transplanted tumor = experiment: Transplanted tumor of HT29 colon cancer cells in nude mice; format: in vivo; settings: 2 mg/kg in combination with 5-fluorouracil at half dose (20 mg/kg), once a day; effect comparable to 5-fluorouracil alone 40 mg/kg
Procedure: The HT29 cells were thawed, and cultured in a changed medium after 24 hours. Medium preparation method: 6% serum, 1% of a bispecific antibody+a 1640 basal medium. After grown to confluent, the cells were digested and subcultured to expand the number of cells. When reached the required amount, the cells were digested by trypsin, centrifuged, and resuspended in PBS to prepare a cell suspension of 1×10^8 cells/ml. A part of the cell suspension was added with the monotropein, desacetyl asperulosidic acid, asperuloside, and asperulosidic acid respectively, and the inhibition rate (%) of tumor cell proliferation by each of these different compounds was examined.
Male adult nude mice, which had the body weights of 20-24 g, were purchased from Guangdong Medical Laboratory Animal Center. After 7 days of adaptive feeding of the animals, except for the blank group, the remaining animals were injected with 0.2 ml of a cell suspension in PBS at ventrodorsal and scapula sites of them, the response conditions of the animals were observed, and the body weights of the animals were determined once a week. After 2 weeks of observation, the animals were grouped into the following groups according to tumor size: a blank group; a model group; a 5-fluorouracil control group (5-Full, 40 mg/kg); monotropein+5-fluorouracil (2 mg/kg monotropein+20 mg/kg 5-fluorouracil), desacetyl asperulosidic acid+5-fluorouracil (2 mg/kg desacetyl asperulosidic acid+20 mg/kg 5-fluorouracil), asperuloside+5-fluorouracil (2 mg/kg asperuloside+20 mg/kg 5-fluorouracil), asperulosidic acid+5-fluorouracil (2 mg/kg asperulosidic acid+20 mg/kg 5-fluorouracil), these groups being labeled as: Mo, As, Aa, Da. Each group included 8 animals; and administration was conducted once a day.
The status, death conditions, and eating and drinking conditions of the animals were observed daily. The body weights of the animals were determined once a week and the tumor size of the animals was determined every 4 days. The tumor volume of the animals was determined by using a vernier caliper. After 1 month of administration, the animals were sacrificed after blood was sampled from the orbit thereof, and the tumor was separated and weighed.

Compound: O=C(O)C1=CO[C@@H](O[C@@H]2O[C@H](CO)[C@@H](O)[C@H](O)[C@H]2O)[C@H]2[C@@H]1C=C[C@]2(O)CO [monotropein]
- level of IL-10 in tumor tissues (IL-6, IL-10, IL-1β; high-dose monotropein (8 mg/kg) and positive drug 5-ASA (100 mg/kg)): no significant differences
- level of IL-10 in tumor tissues (IL-6, IL-10, IL-1β; low-dose monotropein (2 mg/kg)): extremely significantly up-regulated
- effect on Aktl, Western blot (Aktl): no significant effect
- expression of the vitamin D receptor in the colon tissues (Western blot and immunohistochemistry) (vitamin D receptor): promote expression enhancement
- tumor proliferation in HT29 tumor-bearing mice (HT29 transplanted tumor): significantly inhibit tumor proliferation
